Assay results from EP1541198A1, “Cycloalkyl compounds as anti-inflammatory, immunomodulatory and anti-proliferatory agents” (4SC AG, priority 2003, dated 2005).

Target: T1, human DHODH (Homo sapiens, UniProt Q02127)
T1 construct: Prof; M. Löffler, Marburg, Germany (gift, not a commercial vendor)
Assay: Inhibition Assay of DHODH activity
Format: biochemical
Details: recombinant human DHODH; 50 mM TrisHCl, pH 8,0, 30°C; decrease in absorption at 600 nm
Experimental: 4. Inhibition Assay of DHODH activity
The standard assay mixture contained 50 µM decyclo ubichinone, 100 µM dihydroorotate, 60 µM 2,6-dichloroindophenol, as well as 20 mU DHODH. The volume activity of the recombinant enzyme used was 30 U/ml. Measurements were conducted in 50 mM TrisHCl (150 mM KCl, 0,1% Triton X-100, pH 8,0) at 30°C in a final volume of 1 ml. The components were mixed, and the reaction was started by adding dihydroorotate. The course of reaction was followed by spectrophotometrically measuring the decrease in absorption at 600 nm for 2 min. Inhibitory studies were conducted in a standard assay with additional variable amounts of inhibitor. […] These investigations were carried out with recombinant human as well as with recombinant murine DHODH provided by Prof. M. Löffler, Marburg, Germany [M. Löffler, Chem. Biol. Interact.

T1 sequence (Q02127 whole entry): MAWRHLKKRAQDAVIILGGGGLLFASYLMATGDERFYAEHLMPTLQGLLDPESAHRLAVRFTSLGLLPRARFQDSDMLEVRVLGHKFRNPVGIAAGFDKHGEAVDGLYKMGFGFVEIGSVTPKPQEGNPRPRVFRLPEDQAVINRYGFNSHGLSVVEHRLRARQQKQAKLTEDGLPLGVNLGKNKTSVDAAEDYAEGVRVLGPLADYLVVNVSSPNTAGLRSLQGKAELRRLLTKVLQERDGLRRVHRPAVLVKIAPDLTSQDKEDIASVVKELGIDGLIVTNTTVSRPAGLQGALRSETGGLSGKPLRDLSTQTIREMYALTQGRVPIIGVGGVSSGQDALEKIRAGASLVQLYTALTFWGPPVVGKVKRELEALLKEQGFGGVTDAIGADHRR

Compound	IC50 [µM]
O=C(O)C1CCCC1C(=O)Nc1c(F)c(F)c(-c2cccc(OC(F)(F)F)c2)c(F)c1F (stereo not drawn) [Example 8, 2-(2,3,5,6-Tetrafluoro 3'-trifluoromethoxy-biphenyl-4-ylcarbamoyl)-cyclo-pentane carboxylic acid]	< 5
O=C(O)C1CCCC1C(=O)Nc1ccc(-c2ccccc2)cc1 (stereo not drawn) [Example 7, 2-(Biphenyl-4-ylcarbamoyl)-cyclopentane carboxylic acid]	< 5
O=C(O)C1CCCC1C(=O)Nc1c(F)cc(-c2ccccc2Cl)cc1F (stereo not drawn) [Example 3, 2-(2'-Chloro-3,5-difluoro-biphenyl-4-ylcarbamoyl)-cyclopentane carboxylic acid]	< 5
COc1ccc(-c2cc(F)c(NC(=O)C3CCCC3C(=O)O)c(F)c2)c(OC)c1 (stereo not drawn) [Example 4, 2-(3,5-Difluoro-2',4'-dimethoxy-biphenyl-4-ylcarbamoyl)-cyclopentane carboxylic acid]	5 to 20
CCOc1cccc(-c2cc(F)c(NC(=O)C3CCCC3C(=O)O)c(F)c2)c1 (stereo not drawn) [Example 5, 2-(3'-Ethoxy-3,5-difluoro-biphenyl-4-ylcarbamoyl)-cyclopentane carboxylic acid]	< 5
CCOc1ccccc1-c1cc(F)c(NC(=O)C2CCCC2C(=O)O)c(F)c1 (stereo not drawn) [Example 6, 2-(2'-Ethoxy-3,5-difluoro-biphenyl-4-ylcarbamoyl)-cyclopentane carboxylic acid]	5 to 20
O=C(O)C1CCCC1C(=O)Nc1c(F)cc(-c2cccc(OC(F)(F)F)c2)cc1F (stereo not drawn) [Example 9, 2-(3,5-Difluoro-3'-trifluoromethoxy-biphenyl-4-ylcarbamoyl)-cyclopentane carboxylic acid]	< 5
COc1cccc(-c2ccc(NC(=O)[C@H]3CCC[C@H]3C(=O)O)c(F)c2)c1 (relative stereo) [Example 2, cis 2-(3-Fluoro-3' methoxy-biphenyl-4-ylcarbamoyl)-cyclopentane carboxylic acid]	< 5
COc1cccc(-c2ccc(NC(=O)[C@@H]3CCC[C@H]3C(=O)O)c(F)c2)c1 (relative stereo) [Example 1, trans 2-(3-Fluoro-3' methoxy-biphenyl-4-ylcarbamoyl)-cyclopentane carboxylic acid]	5 to 20
